These results are taken from ChEMBL document CHEMBL1151525, “Thromboxane receptor antagonism combined with thromboxane synthase inhibition. 7. pyridinylalkyl-substituted arylsulfonylamino arylalkanoic acids” (Bioorg Med Chem Lett, 1992).

Structures are written as SMILES.

One test has as its target T1, Thromboxane-A synthase (Homo sapiens, UniProt P24557).
T1 sequence (P24557 whole entry): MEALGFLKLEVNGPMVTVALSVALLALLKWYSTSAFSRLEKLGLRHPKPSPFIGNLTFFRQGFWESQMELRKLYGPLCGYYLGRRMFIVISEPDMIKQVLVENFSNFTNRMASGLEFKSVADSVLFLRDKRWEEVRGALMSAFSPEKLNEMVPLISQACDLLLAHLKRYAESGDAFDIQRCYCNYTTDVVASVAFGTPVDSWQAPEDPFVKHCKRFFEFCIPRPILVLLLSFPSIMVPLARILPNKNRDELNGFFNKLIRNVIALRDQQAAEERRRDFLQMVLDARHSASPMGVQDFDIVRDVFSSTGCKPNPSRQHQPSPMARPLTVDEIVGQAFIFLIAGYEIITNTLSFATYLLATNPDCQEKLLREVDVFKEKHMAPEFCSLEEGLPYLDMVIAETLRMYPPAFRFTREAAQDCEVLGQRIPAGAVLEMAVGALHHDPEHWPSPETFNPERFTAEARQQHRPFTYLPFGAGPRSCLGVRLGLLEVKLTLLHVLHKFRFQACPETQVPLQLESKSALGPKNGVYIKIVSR
Nature of the test: Inhibitory concentration against thromboxane synthase enzyme from human microsomal platelet preparation.

The species entered for test [1] is Homo sapiens. Nature of the test: Inhibitory concentration against U 46619 induced aggregation of human washed platelets(WP). The format is functional.
Test [2] is filed under the species Homo sapiens. Nature of the test: Inhibitory concentration against U 46619 induced aggregation of human platelet rich plasma(PRP). The format is functional.
For another test, the system named is Cavia porcellus. Nature of the test: Ratio of EC50 for drug treated animals over that of control was determined for U-46,619 induced ex-vivo platelet aggregation 1 hr post dosing of 10 mg/kg orally. The settings on record: route oral. It is filed as functional.

Regarding `O=C(O)CCc1ccc(CCCNS(=O)(=O)c2ccc(Cl)cc2)cc1CCc1cccnc1`, the half-maximal inhibitory concentration (IC50) at Thromboxane-A synthase worked out at 0.026 µM; in the test filed under Homo sapiens [1], 0.23 µM.
Regarding `O=C(O)Cc1cc(CCCNS(=O)(=O)c2ccc(Cl)cc2)cc(CCc2cccnc2)c1`, the IC50 at Thromboxane-A synthase stood at 0.007 µM; in the test listed under Homo sapiens [2], 10.7 µM; in the test filed under Homo sapiens [1], 1.13 µM.
As for `O=C(O)CCc1cc(CCNS(=O)(=O)c2ccc(Cl)cc2)ccc1CCc1cccnc1`, the 50% inhibitory concentration (IC50) against Thromboxane-A synthase turned out to be 0.015 µM; in the test filed under Homo sapiens [2] it was 0.3 µM; in the test listed under Homo sapiens [1] it was 0.015 µM. In addition, the Concentration ratio in the test with Cavia porcellus is on record as 52.
For the compound `O=C(O)CCc1ccc(CNS(=O)(=O)c2ccc(Cl)cc2)c(CCc2cccnc2)c1`, the IC50 against Thromboxane-A synthase worked out at 0.043 µM; in the test filed under Homo sapiens [1], 0.38 µM.
As to `COC(=O)CCc1cc(CCNS(=O)(=O)c2ccc(Cl)cc2)cc(CCc2cccnc2)c1`, the IC50 at Thromboxane-A synthase turned out to be 0.009 µM; in the test listed under Homo sapiens [2] it was 0.17 µM; in the test filed under Homo sapiens [1] it was 0.003 µM. Also, the Concentration ratio in the test with Cavia porcellus was >100.

As a reminder, the IC50 is the concentration that inhibits the measured activity by half. Lower therefore signals greater potency.
